Source: patent publication US10881645B2, “Methods for controlling blood pressure and reducing dyspnea in heart failure” (Chiesi Farmaceutici S.p.A., priority 2012, dated 2021)

Experiments:
[1] = test system: AHF patients with SBP of ≥160 mmHg; test: Dyspnea assessment by 100 mm VAS, VMAC scale and PDA; format: in vivo, human
Method: Dyspnea was assessed by a 100 mm VAS, in which a score of 0 was “no dyspnea” and a score of 100 represented “worst possible dyspnea.” Dyspnea was evaluated immediately prior to study drug administration, and at 15, 30, 45, 60, 120, 360 and 720 minutes afterward. In addition, the Vasodilation in the Management of Acute Congestive Heart Failure (VMAC) scale, a relative 7 point Likert score, and the Provocative Dyspnea Assessment (PDA) (Pang et al, Eur Heart J2008, 29) were both performed in the seated and supine positions and recorded.

[2] = test system: AHF patients with SBP of ≥160 mmHg; test: Safety analyses of the AHF trial (hypotension, adverse events, deaths)
Method: (§1) A randomized open label 13-center trial enrolled AHF patients with SBP of ≥160 mmHg, sitting dyspnea score ≥50 on a 100 mm VAS, and a physician's clinical diagnosis of AHF with pulmonary congestion by chest auscultation.
(§2) If the target blood pressure range was not reached within 30 minutes, or not maintained thereafter, alternative antihypertensive agents were allowed per physician discretion, with or without continuation of the study drug.
(§3) Two populations were analyzed. The “safety” population included all patients receiving any study drug, and was used for all safety analyses.
Historical ejection fraction data was recorded when available.

[3] = in vivo; cited from earlier work
[4] = test system: AHF patients with SBP of ≥160 mmHg; test: Randomized open label 13-center trial: blood pressure control, clevidipine vs standard of care; format: in vivo, human
Method: as §1, §2, §3

[5] = AHF population, 30-minute target SBP range

O=[N+]([O-])OCC(CO[N+](=O)[O-])O[N+](=O)[O-] [nitroglycerin]
Speed of VAS improvement, SOC subsets ([1]; FIG. 2D, compared with clevidipine): neither nitroglycerin nor nicardipine improved VAS as quickly as clevidipine

CCCC(=O)OCOC(=O)C1=C(C)NC(C)=C(C(=O)OC)C1c1cccc(Cl)c1Cl (stereo not drawn) [clevidipine]
Duration of SBP <90 mmHg ([2]; human, in vivo): 3.3 min
Patients who exceeded their lower target blood pressure range limit ([2]; human, in vivo): 15 patients
Patients with at least one related TEAE, % ([2]; human, in vivo): 9.8%
Proportion of time that SBP was <90 mmHg while on study drug ([2]; human, in vivo): 2.5%
SBP <90 mmHg occurred, % of patients ([2]; human, in vivo): 5.9%
SBP <90 mmHg occurred, patients ([2]; human, in vivo): 3 patients
Study drug related TEAE: Abdominal discomfort, % ([2]; human, in vivo): 2.0%
Study drug related TEAE: Abdominal pain, % ([2]; human, in vivo): 2.0%
Study drug related TEAE: Blurred vision, % ([2]; human, in vivo): 2.0%
Study drug related TEAE: Flushing, % ([2]; human, in vivo): 2.0%
Study drug related TEAE: Headache, % ([2]; human, in vivo): 2.0%
Study drug related TEAE: Myalgia, % ([2]; human, in vivo): 2.0%
Study drug related TEAE: Nausea, % ([2]; human, in vivo): 2.0%
Study drug related TEAE: Ventricular tachycardia, % ([2]; human, in vivo): 2.0%
Incidence of serious adverse events ([2]; human, in vivo, 30 days): 23.5%
Mean by which the lower target limit was exceeded ([2]; in vivo): 8.7 mmHg
Mean heart rate change from baseline to 30 minutes ([2]; in vivo): 2.6 bpm
Symptomatic hypotension, patients ([2]; in vivo): one
Patients expired within 30 days of treatment ([2]; none during study drug administration): 3 patients
Half-life [3]: about 1 minute
Target blood pressure range achieved, % of patients [4, 5]: 70.5%
Target blood pressure range achieved, patients/total [4, 5]: 31/44
AUC above the target blood pressure, median ([4]; in vivo): 327 mmHg×min/h
AUC below the target blood pressure, median ([4]; in vivo): 0 mmHg×min/h
AUC outside the target blood pressure, median ([4]; in vivo): 379 mmHg×min/h
Patients requiring additional antihypertensives ([4]; in vivo): 15.9%
Rate of being within, but not below, the target blood pressure range ([4]; in vivo): 45.5%
Median time to reach target blood pressure range ([4]; patients in which the target range was achieved): 15 min
Mean VAS decrease from baseline ([1]; at 45 minutes, 100 mm dyspnea VAS): 37.1 mm
Effect on dyspnea compared with nicardipine ([1]; in vivo): significantly greater than the effect of nicardipine on dyspnea
VAS dyspnea scores over time (treatment×time effect) ([1]; vs SOC): decreased more from baseline with clevidipine than SOC
VMAC and PDA scores ([1]; vs SOC): non-significant trends toward greater improvement with clevidipine than SOC
